Data taken from US11166977B2, “Compositions for treating meibomian gland dysfunction” (ADS THERAPEUTICS LLC, priority 2019, dated 2021).

Key:
[1] = test system: Patients with Primary or Recurrent Pterygium; test: Phase 2a clinical trial in pterygium patients: ocular symptom and PSLQ questionnaire scores; type: in vivo, human
Text: 2-HP-β-CD Formulation I was used as vehicle.
A trend of effects also remained after the stop of treatment at weeks 8, 16, and 24. The other questions didn't generate statistically significant effects.
These ocular symptoms are often observed in MGD patients. Scores of these symptoms were graded by patients as part of PSLQ questionnaires.

[2] = Aqueous solution at 37° C.; concentration of CDs 1.0 × 10^−2M; cited from earlier work

2-Hydroxypropyl-beta-cyclodextrin [Formulation 2-HP-β-CD]
PSLQ Overall Average Score, Baseline Mean (SD) ([1]; Baseline, Modified Intent-to-Treat Population, N = 23): 0.70 (0.66)
PSLQ Average Ocular Symptom Score, Baseline Mean (SD) ([1]; Baseline, mITT, N = 23): 0.88 (0.81)
PSLQ Average Quality of Life Impact Score, Baseline Mean (SD) ([1]; Baseline, mITT, N = 23): 0.57 (0.92)
PSLQ Average Vision-Related Functioning Score, Baseline Mean (SD) ([1]; Baseline, mITT, N = 23): 0.57 (0.80)
PSLQ Average Vision-Related Functioning Score, Change from Baseline Mean (SD) ([1]; Week 2, mITT, N = 23): −0.27 (0.65)
PSLQ Average Vision-Related Functioning Score, Change from Baseline Mean (SD) ([1]; Week 4, mITT, N = 23): −0.48 (0.65)
PSLQ Average Vision-Related Functioning Score, Change from Baseline Mean (SD) ([1]; Week 8, mITT, N = 23): −0.43 (0.62)
PSLQ Average Vision-Related Functioning Score, Change from Baseline Mean (SD) ([1]; Week 16, mITT, N = 23): −0.23 (0.56)
PSLQ Average Vision-Related Functioning Score, Change from Baseline Mean (SD) ([1]; Week 24, mITT, N = 23): −0.11 (1.1)
PSLQ scores compared to the baseline (in words) ([1]; human, in vivo): significant improvements

OC[C@H]1O[C@@H]2O[C@H]3[C@H](O)[C@@H](O)[C@@H](O[C@H]4[C@H](O)[C@@H](O)[C@@H](O[C@H]5[C@H](O)[C@@H](O)[C@@H](O[C@H]6[C@H](O)[C@@H](O)[C@@H](O[C@H]7[C@H](O)[C@@H](O)[C@@H](O[C@H]1[C@H](O)[C@H]2O)O[C@@H]7CO)O[C@@H]6CO)O[C@@H]5CO)O[C@@H]4CO)O[C@@H]3CO [Alpha-CD, alpha-cyclodextrin]
Increase in Absorbance (600 nm) Due to Cholesterol Dissolved by CDs [2]: zero

COCC1O[C@@H]2O[C@@H]3C(COC)O[C@H](O[C@@H]4C(COC)O[C@H](O[C@@H]5C(COC)O[C@H](O[C@@H]6C(COC)O[C@H](O[C@@H]7C(COC)O[C@H](O[C@@H]8C(COC)O[C@H](O[C@H]1C(O)C2OC)C(OC)C8O)C(OC)C7O)C(OC)C6O)C(OC)C5O)C(OC)C4O)C(OC)C3O (stereo partly drawn) [DOM-beta-CD, 2,6-Di-O-methyl-beta-cyclodextrin]
Increase in Absorbance (600 nm) Due to Cholesterol Dissolved by CDs [2]: a remarkable increase in absorbance

OC[C@H]1O[C@@H]2O[C@H]3[C@H](O)[C@@H](O)[C@@H](O[C@H]4[C@H](O)[C@@H](O)[C@@H](O[C@H]5[C@H](O)[C@@H](O)[C@@H](O[C@H]6[C@H](O)[C@@H](O)[C@@H](O[C@H]7[C@H](O)[C@@H](O)[C@@H](O[C@H]8[C@H](O)[C@@H](O)[C@@H](O[C@H]9[C@H](O)[C@@H](O)[C@@H](O[C@H]1[C@H](O)[C@H]2O)O[C@@H]9CO)O[C@@H]8CO)O[C@@H]7CO)O[C@@H]6CO)O[C@@H]5CO)O[C@@H]4CO)O[C@@H]3CO [Gamma-CD, gamma-cyclodextrin]
Increase in Absorbance (600 nm) Due to Cholesterol Dissolved by CDs [2]: zero

COC(=O)c1ccc2c(c1)NC(=O)/C2=C(\Nc1ccc(N(C)C(=O)CN2CCN(C)CC2)cc1)c1ccccc1 [Nintedanib 0.2%, nintedanib, reference compound]
PSLQ scores, Nintedanib 0.2% vs Vehicle (in words) ([1]; pterygium patients with dry eye condition): no statistically significant differences
